Measurements reported in patent US20200017495A1, “NOVEL HETEROCYCLIC COMPOUNDS AND THEIR USE IN PREVENTING OR TREATING BACTERIAL INFECTIONS” (priority 2017, published 2020).
“And” between values parts separate entries of the source, which are not always exact repeats. Identical values can stand only once. Like-named read-outs stand apart in the source and are kept apart here.

Assays:
Assay in all cases: MIC of compounds alone and combined with antibacterials, broth microdilution (CLSI)
Type in all cases: cell-based
[1] = test system: Escherichia coli (ECO) isolates
How it was run: (§1)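 Antibacterial MICs in combination were determined at every compound concentration tested, alongside compound MICs alone. Bacteria grew in cation-adjusted Mueller-Hinton broth starting from 5.10^5 CFU/mL, incubated at 35° C for 16-20 h, and endpoints were the lowest concentrations with no visible growth.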

[2] = test system: Providencia rettgeri (PRE) isolates
How it was run: as §1

[3] = test system: Serratia marcescens (SMA) isolates
How it was run: as §1

CC1(C)S[C@@H]2[C@H](NC(=O)[C@H](N)c3ccc(O)cc3)C(=O)N2[C@H]1C(=O)O [AMX, Amoxicillin]
MIC ATB in combination ([1]; ECO UFR45, AF2 @ 8 μg/mL): <0.25 µg/mL
MIC ATB in combination ([1]; ECO UFR61O, AF2 @ 8 μg/mL): 4 µg/mL
MIC ATB in combination ([1]; ECO UFR62, AF2 @ 8 μg/mL): <0.25 µg/mL
MIC ATB in combination ([1]; ECO UFR74, AF2 @ 8 μg/mL): <0.25 µg/mL
MIC ATB in combination ([1]; ECO UFR86, AF2 @ 8 μg/mL): 2 µg/mL
MIC ATB in combination ([1]; ECO UFR86, CLA @ 4 μg/mL): 8 µg/mL
MIC ATB in combination ([1]; ECO UFR209, CLA @ 4 μg/mL): 32 µg/mL
MIC ATB in combination ([1]; ECO UFR210, CLA @ 4 μg/mL): 8 µg/mL
MIC ATB in combination ([1]; ECO UFR211, CLA @ 4 μg/mL): 8 µg/mL
MIC ([1]; strain ECO 4133, genotype TEM-30, OXA-1): >256 µg/mL
MIC ([1]; strain ECO 5302, genotype TEM-1, OXA-1): >256 µg/mL
MIC ([1]; strain ECO 131119, genotype TEM-1, OXA-48): >1024 µg/mL
MIC ([1]; strain ECO 180070, genotype TEM-1, CTX-M-15): >256 µg/mL
MIC ([1]; strain ECO 190314, genotype CTX-M-1): >256 µg/mL
MIC ([1]; strain ECO 190317, genotype TEM-1, SHV-12, CTX-M-15, OXA-1): >1024 µg/mL
MIC ([1]; strain ECO 190457, genotype CTX-M-15, OXA-1): >256 µg/mL
MIC ([1]; strain ECO 190549, genotype CTX-M-1): >256 µg/mL
MIC ([1]; strain ECO 200159, genotype TEM-1, CTX-M-14): >256 µg/mL
MIC ([1]; strain ECO 200259, genotype CTX-M-14): >256 µg/mL
MIC ([1]; strain ECO 200344, genotype CTX-M-1): >256 µg/mL
MIC ([1]; strain ECO 260096, genotype CTX-M-132): >256 µg/mL
MIC ([1]; strain ECO 260304, genotype CTX-M-15): >256 µg/mL
MIC ([1]; strain ECO 260508, genotype TEM-1, CTX-M-15, OXA-1): >256 µg/mL
MIC ([1]; strain ECO RGN238, genotype OXA-1): >1024 µg/mL
MIC ([1]; strain ECO UFR15, genotype TEM-1, OXA-48): >256 µg/mL
MIC ([1]; strain ECO UFR16, genotype TEM-1, CTX-M-15, OXA-1, OXA-48): >256 µg/mL
MIC ([1]; strain ECO UFR17, genotype TEM-1, CTX-M-15, CMY-2, OXA-1, OXA-181): >256 µg/mL
MIC ([1]; strain ECO UFR18, genotype CTX-M-15, OXA-204): >256 µg/mL
MIC ([1]; strain ECO UFR19, genotype CTX-M-15, CMY-2, OXA-1, OXA-204): >256 µg/mL
MIC ([1]; strain ECO UFR20, genotype SHV-1, CTX-M-15, OXA-1, OXA-232): >256 µg/mL
MIC ([1]; strain ECO UFR32, genotype TEM-1, VEB-1, OXA-10): >256 µg/mL
MIC ([1]; strain ECO UFR39, genotype CTX-M-15, NDM-1): >1024 µg/mL
MIC ([1]; strain ECO UFR41, genotype TEM-1, CTX-M-15, CMY-2, OXA-1, NDM-4): >256 µg/mL
MIC ([1]; strain ECO UFR45, genotype TEM-1, CMY-4, OXA-1, OXA-48, VIM-1): >256 µg/mL
MIC ([1]; strain ECO UFR52, genotype TEM-1, SHV-12, IMP-8): >256 µg/mL
MIC ([1]; strain ECO UFR61O, genotype TEM-1, KPC-2): >256 µg/mL
MIC ([1]; strain ECO UFR62, genotype TEM-1, CTX-M-9, KPC-2): >256 µg/mL
MIC ([1]; strain ECO UFR74, genotype SHV-1, DHA-1): >256 µg/mL
MIC ([1]; strain ECO UFR86, genotype ompC-, ompF-): 16 µg/mL
MIC ([1]; strain ECO UFR174, genotype TEM-1, KPC-2, OXA-1): >128 µg/mL
MIC ([1]; strain ECO UFR175, genotype TEM-1, KPC-2, OXA-9): >128 µg/mL
MIC ([1]; strain ECO UFR176, genotype KPC-3, OXA-9*): >128 µg/mL
MIC ([1]; strain ECO UFR177, genotype TEM-1, CTX-M-15, OXA-1, OXA-2, NDM-1, RmtC, antibiotic alone): >128 µg/mL
MIC ([1]; strain ECO UFR178, genotype TEM-1, CTX-M-15, OXA-9, NDM-1, antibiotic alone): >128 µg/mL
MIC ([1]; strain ECO UFR179, genotype TEM-1, SHV-12, CTX-M-15, NDM-1, antibiotic alone): >128 µg/mL
MIC ([1]; strain ECO UFR180, genotype TEM-1, CMY-30, OXA-1, NDM-1, antibiotic alone): >128 µg/mL
MIC ([1]; strain ECO UFR181, genotype TEM-1, CTX-M-15, NDM-5, antibiotic alone): >128 µg/mL
MIC ([1]; strain ECO UFR182, genotype CTX-M-15, OXA-1, NDM-6, antibiotic alone): >128 µg/mL
MIC ([1]; strain ECO UFR183, genotype CTX-M-15, OXA-1, NDM-7, antibiotic alone): >128 µg/mL
MIC ([1]; strain ECO UFR184, genotype CTX-M-15, CMY-4, OXA-1, OXA-204): >128 µg/mL
MIC ([1]; strain ECO UFR185, genotype OXA-48): >128 µg/mL
MIC ([1]; strain ECO UFR186, genotype TEM-1, CTX-M-14, OXA-48): >128 µg/mL
MIC ([1]; strain ECO UFR187, genotype CTX-M-15, OXA-48): >128 µg/mL
MIC ([1]; strain ECO UFR189, genotype TEM-1, CTX-M-15, OXA-48): >128 µg/mL
MIC ([1]; strain ECO UFR190, genotype CTX-M-24, OXA-48): >128 µg/mL
MIC ([1]; strain ECO UFR191, genotype TEM-1, CTX-M-24, OXA-48): >128 µg/mL
MIC ([1]; strain ECO UFR204, genotype TEM-1, CMY-4, OXA-48, VIM-1, antibiotic alone): >128 µg/mL
MIC ([1]; strain ECO UFR205, genotype CTX-M-15, VIM-4, antibiotic alone): >128 µg/mL
MIC ([1]; strain ECO UFR206, genotype TEM-1, CTX-M-15, OXA-1, VIM-4, antibiotic alone): >128 µg/mL
MIC ([1]; strain ECO UFR207, genotype CTX-M-15): >128 µg/mL
MIC ([1]; strain ECO UFR208, genotype SHV-12): >128 µg/mL
MIC ([1]; strain ECO UFR209, genotype TEM-1, CTX-M-15): >128 µg/mL
MIC ([1]; strain ECO UFR210, genotype SHV-12): >128 µg/mL
MIC ([1]; strain ECO UFR211, genotype TEM-24): >128 µg/mL
MIC ([1]; strain ECO UFR212, genotype CMY-2): >128 µg/mL
MIC ([1]; strain ECO UFR218, genotype TEM-1, SHV-1, CTX-M-15): >128 µg/mL
MIC ([1]; strain ECO UFR252GO, genotype VIM-2, antibiotic alone): >128 µg/mL
MIC ([1]; strain ECO UFR255, genotype NDM-1, antibiotic alone): >128 µg/mL
MIC ATB in combination [2]: >128 µg/mL
MIC ([2]; strain PRE UFR96, genotype CTX-M-15, NDM-1): >128 µg/mL
MIC ([2]; strain PRE UFR97, genotype TEM-1, NDM-1): >128 µg/mL
MIC ([2]; strain PRE UFR99, genotype OXA-1, OXA-181): >128 µg/mL
MIC ([2]; strain PRE UFR236, genotype TEM-1, OXA-48): >128 µg/mL
MIC [3]: >128 µg/mL
MIC ATB in combination [3]: >128 µg/mL and 128 µg/mL
MIC ATB in combination ([3]; SMA UFR30, AF2 @ 8 μg/mL): 64 µg/mL
MIC ATB in combination ([3]; SMA UFR239, CLA @ 4 μg/mL): 64 µg/mL
MIC ([3]; strain SMA UFR30, genotype OXA-405): >256 µg/mL
MIC ([3]; strain SMA UFR134, genotype TEM-1, BES-1): >128 µg/mL
MIC ([3]; strain SMA UFR135, genotype TEM-1, KPC-2): >128 µg/mL
MIC ([3]; strain SMA UFR136, genotype TEM-1, SHV-12, KPC-2): >128 µg/mL
MIC ([3]; strain SMA UFR140, genotype IMP-1): >128 µg/mL
MIC ([3]; strain SMA UFR141, genotype OXA-48): >128 µg/mL
MIC ([3]; strain SMA UFR142, genotype OXA-48): >128 µg/mL
MIC ([3]; strain SMA UFR143, genotype CTX-M-15, OXA-1, OXA-48): >128 µg/mL
MIC ([3]; strain SMA UFR238, genotype OXA-48): >128 µg/mL
